Active and inactive are the calls of the source. How the calls were made is not given here.
Test system: rodent carcinogenicity bioassays, tumor incidence
Assay: CCRIS carcinogenicity studies
In short: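 NCI-built, expert-reviewed records of carcinogenicity and related test outcomes (mutagenicity, tumor promotion/inhibition) compiled from published and report sources, historical span 1985-2011, not updated.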

Which results are given for `ClC=C(Cl)Cl`?
carcinogen call (Species: MOUSE, Strain/Sex: B6C3F1/FEMALE, Route: GAVAGE, Dose: 0, 869, 1739 MG/KG/D, TWA, Dose: 0, 869, 1739 MG/KG/D, TWA, Tumor Site: Type of Lesion: LIVER: HEPATOCELLULAR CARCINOMA): active; positive; carcinogen call (Species: MOUSE, Strain/Sex: B6C3F1/FEMALE, Route: GAVAGE, Dose: 0, 1000 MG/KG IN CORN OIL 5 D/WK FOR 103 WK (STUDY DURATION: 107 WK), Tumor Site: Type of Lesion: LIVER: ADENOMA, CARCINOMA): active; positive; carcinogen call (Species: MOUSE, Strain/Sex: B6C3F1/FEMALE, Route: INHALATION, Dose: 0, 100, 300, 600 PPM 7 HR/D 5 D/WK FOR 78 WK (STUDY DURATION: LIFETIME), Dose: 0, 100, 300, 600 PPM 7 HR/D 5 D/WK FOR 78 WK (STUDY DURATION: LIFETIME), Tumor Site: Type of Lesion: LUNG: TUMOR): active; positive; carcinogen call (Species: MOUSE, Strain/Sex: B6C3F1/MALE, Route: GAVAGE, Dose: 0, 1000 MG/KG IN CORN OIL 5 D/WK FOR 103 WK (STUDY DURATION: 107 WK), Tumor Site: Type of Lesion: LIVER: ADENOMA, CARCINOMA): active; positive; carcinogen call (Species: MOUSE, Strain/Sex: B6C3F1/MALE, Route: GAVAGE, Dose: 0, 1169, 2339 MG/KG/D, TWA, Dose: 0, 1169, 2339 MG/KG/D, TWA, Tumor Site: Type of Lesion: LIVER: HEPATOCELLULAR CARCINOMA): active; positive; carcinogen call (Species: MOUSE, Strain/Sex: B6C3F1/MALE, Route: INHALATION, Dose: 0, 100, 300, 600 PPM 7 HR/D 5 D/WK FOR 78 WK (STUDY DURATION: LIFETIME), Dose: 0, 100, 300, 600 PPM 7 HR/D 5 D/WK FOR 78 WK (STUDY DURATION: LIFETIME)): inactive; negative; carcinogen call (Species: MOUSE, Strain/Sex: ICR/MALE, FEMALE, Route: GAVAGE, Dose: 0, 10 MG/KG IN CORN OIL 5 D/WK FOR 18 MO (DOSES REDUCED BY FACTOR OF 2 FROM 40TH WEEK)(STUDY DURATION: 24 MO)): inactive; negative; carcinogen call (Species: MOUSE, Strain/Sex: SWISS/FEMALE, Route: INHALATION, Dose: 0, 100, 300, 600 PPM 7 HR/D 5 D/WK FOR 78 WK (STUDY DURATION: LIFETIME), Dose: 0, 100, 300, 600 PPM 7 HR/D 5 D/WK FOR 78 WK (STUDY DURATION: LIFETIME)): inactive; negative; carcinogen call (Species: MOUSE, Strain/Sex: SWISS/MALE, Route: INHALATION, Dose: 0, 100, 300, 600 PPM 7 HR/D 5 D/WK FOR 78 WK (STUDY DURATION: LIFETIME), Dose: 0, 100, 300, 600 PPM 7 HR/D 5 D/WK FOR 78 WK (STUDY DURATION: LIFETIME), Tumor Site: Type of Lesion: LUNG: TUMOR, LIVER: HEPATOMA): active; positive; carcinogen call (Species: RAT, Strain/Sex: F344/FEMALE, Route: GAVAGE, Dose: 0, 500, 1000 MG/KG IN CORN OIL 5 D/WK FOR 103 WK (STUDY DURATION: 107 WK), Dose: 0, 500, 1000 MG/KG IN CORN OIL 5 D/WK FOR 103 WK (STUDY DURATION: 107 WK)): inactive; negative; carcinogen call (Species: RAT, Strain/Sex: SPRAGUE-DAWLEY/FEMALE, Route: GAVAGE, Dose: 0, 50, 250 MG/KG BW IN OLIVE OIL 1/D 4-6 D/WK FOR 52 WK (STUDY DURATION: LIFETIME), Dose: 0, 50, 250 MG/KG BW IN OLIVE OIL 1/D 4-6 D/WK FOR 52 WK (STUDY DURATION: LIFETIME), Tumor Site: Type of Lesion: [BRAIN WAS ONLY SITE EVALUATED]): inactive; negative; carcinogen call (Species: RAT, Strain/Sex: SPRAGUE-DAWLEY/FEMALE, Route: INHALATION, Dose: 0, 100, 300, 600 PPM 7 HR/D 5 D/WK FOR 104 WK (STUDY DURATION: LIFETIME), Dose: 0, 100, 300, 600 PPM 7 HR/D 5 D/WK FOR 104 WK (STUDY DURATION: LIFETIME)): inactive; negative; carcinogen call (Species: RAT, Strain/Sex: SPRAGUE-DAWLEY/MALE, Route: GAVAGE, Dose: 0, 50, 250 MG/KG BW IN OLIVE OIL 1/D 4-6 D/WK FOR 52 WK (STUDY DURATION: LIFETIME), Dose: 0, 50, 250 MG/KG BW IN OLIVE OIL 1/D 4-6 D/WK FOR 52 WK (STUDY DURATION: LIFETIME), Tumor Site: Type of Lesion: [BRAIN WAS ONLY SITE EVALUATED]): inactive; negative; carcinogen call (Species: RAT, Strain/Sex: SPRAGUE-DAWLEY/MALE, Route: INHALATION, Dose: 0, 100, 300, 600 PPM 7 HR/D 5 D/WK FOR 104 WK (STUDY DURATION: LIFETIME), Dose: 0, 100, 300, 600 PPM 7 HR/D 5 D/WK FOR 104 WK (STUDY DURATION: LIFETIME), Tumor Site: Type of Lesion: TESTIS: LEYDIG CELL TUMOR): active; positive

How did the carcinogen call (Species: MOUSE, Strain/Sex: SWISS/MALE,FEMALE, Route: ORAL, Dose: 0.125% IN WATER, Tumor Site: Type of Lesion: LUNG) turn out when `CNc1nncc2ccccc12` was run?
The carcinogen call was “active; positive”.

What about the carcinogen call (Species: RAT, Strain/Sex: SPRAGUE-DAWLEY/MALE, Route: ORAL, Dose: 0, 0.035% IN DIET FOR 68-87 WK (STUDY DURATION: 87 WK)) of the same compound?
The carcinogen call was “inactive; negative”.

And the carcinogen call (Species: RAT, Strain/Sex: SPRAGUE-DAWLEY/MALE, Route: SUBCUTANEOUS, Dose: 0, 16.7 MG/KG 1/WK FOR 87 WK (STUDY DURATION: 87 WK))?
The carcinogen call was “inactive; negative”.

What about the carcinogen call (Species: RAT, Strain/Sex: SPRAGUE-DAWLEY/MALE, Route: SUBCUTANEOUS, Dose: 0, 16.7 MG/KG 1/WK FOR 87 WK ADMINISTERED TO PARTIALLY HEPATECTOMIZED RATS (STUDY DURATION: 87 WK)) of the same compound?
Its carcinogen call is “inactive; negative”.

For `C[C@]12CC[C@@H]3c4ccc(O)cc4CC[C@H]3[C@@H]1C[C@@H](O)[C@@H]2O`, which carcinogen call (Species: HAMSTER, Route: SUBCUTANEOUS IMPLANT, Tumor Site: Type of Lesion: KIDNEY) is on record?
The carcinogen call was “active; positive”.

And the carcinogen call (Species: HUMAN, Tumor Site: Type of Lesion: UTERUS (ENDOMETRIUM))?
Its carcinogen call is “active; positive”.

What about the carcinogen call (Species: MOUSE, Route: SUBCUTANEOUS IMPLANT, Tumor Site: Type of Lesion: MAMMARY GLAND) of the same compound?
Its carcinogen call is “active; positive”.
